From patent US20230167122A1, “PESTICIDALLY ACTIVE HETEROCYCLIC DERIVATIVES WITH SULFUR CONTAINING SUBSTITUENTS” (SYNGENTA CROP PROTECTION AG, priority 2020, published 2023)

How the values were obtained:
Assay type in all cases: in vivo
[1] = system: Diabrotica balteata (Corn Root Worm); assay: Example B2: Activity against Diabrotica balteata (corn root worm), sprayed maize sprouts; settings: 96 h, application rate of 200 ppm, L2 larvae on maize sprouts, 4 days after infestation, read-out: effect in at least one of the two categories (mortality or growth inhibition)
Experimental: Example B2: Activity Against Diabrotica balteata (Corn Root Worm)
Maize sprouts placed onto an agar layer in 24-well microtiter plates were treated with aqueous test solutions prepared from 10′000 ppm DMSO stock solutions by spraying. After drying, the plates were infested with L2 larvae (6 to 10 per well). The samples were assessed for mortality and growth inhibition in comparison to untreated samples 4 days after infestation.

[2] = system: Nilaparvata lugens (Brown Plant Hopper); assay: Example B11: Activity against Nilaparvata lugens (brown plant hopper), larvicide, feeding/contact; settings: 168 h, application rate of 50 ppm, N3 nymphs on sprayed rice plants, 7 days after the treatment
Experimental: Example B11: Activity Against Nilaparvata lugens (Brown Plant Hopper) Larvicide, Feeding/Contact
Rice plants were treated with the diluted test solutions in a spray chamber. After drying plants were infested with ˜20 N3 nymphs. 7 days after the treatment samples were assessed for mortality and growth regulation.

[3] = system: Bemisia tabaci (Cotton White Fly); assay: Example B1: Activity against Bemisia tabaci (cotton white fly), sprayed cotton leaf discs; settings: foliar, 144 h, application rate of 200 ppm, adult white flies on cotton leaf discs, 6 days after incubation
Experimental: Example B1: Activity Against Bemisia tabaci (Cotton White Fly)
Cotton leaf discs were placed on agar in 24-well microtiter plates and sprayed with aqueous test solutions prepared from 10′000 ppm DMSO stock solutions. After drying the leaf discs were infested with adult white flies. The samples were checked for mortality 6 days after incubation.

[4] = system: Myzus persicae (Green Peach Aphid); assay: Example B6: Activity against Myzus persicae (green peach aphid), sprayed sunflower leaf discs; settings: foliar, 144 h, application rate of 200 ppm, aphid population of mixed ages on sunflower leaf discs, 6 days after infestation
Experimental: Example B6: Activity Against Myzus persicae (Green Peach Aphid)
(§1) Sunflower leaf discs were placed on agar in a 24-well microtiter plate and sprayed with aqueous test solutions prepared from 10′000 ppm DMSO stock solutions. After drying, the leaf discs were infested with an aphid population of mixed ages. The samples were assessed for mortality 6 days after infestation.

[5] = system: Plutella xylostella (Diamond Back Moth); assay: Example B8: Activity against Plutella xylostella (diamond back moth), L2 larvae, artificial diet; settings: 120 h, application rate of 200 ppm, 5 days after infestation, read-out: effect in at least one of the two categories (mortality or growth inhibition)
Experimental: Example B8: Activity Against Plutella xylostella (Diamond Back Moth)
(§2) 24-well microtiter plates with artificial diet were treated with aqueous test solutions prepared from 10′000 ppm DMSO stock solutions by pipetting. After drying, the plates were infested with L2 larvae (10 to 15 per well). The samples were assessed for mortality and growth inhibition in comparison to untreated samples 5 days after infestation.

[6] = system: Frankliniella occidentalis (Western Flower Thrips); assay: Example B4: Activity against Frankliniella occidentalis (western flower thrips), sprayed sunflower leaf discs; settings: foliar, 168 h, application rate of 200 ppm, population of mixed ages on sunflower leaf discs, 7 days after infestation
Experimental: Example B4: Activity Against Frankliniella occidentalis (Western Flower Thrips)
as §1, with “in” for “in a”, “plates” for “plate”, “[…]” for “10′000 ppm”, “drying” for “drying,”, “a Frankliniella” for “an aphid”, “7” for “6”

[7] = system: Nilaparvata lugens (Brown Plant Hopper); assay: Example B12: Activity against Nilaparvata lugens (brown plant hopper), larvicide, systemic into water; settings: 168 h, application rate of 12.5 ppm, systemic into nutritive solution, rice plants, N3 nymphs, 7 days after infestation
Experimental: Example B12: Activity Against Nilaparvata lugens (Brown Plant Hopper) Larvicide, Systemic into Water
Rice plants cultivated in a nutritive solution were treated with the diluted test solutions into nourishing cultivation system. 1 day after application plants were infested with ˜20 N3 nymphs. 7 days after infestation samples were assessed for mortality and growth regulation.

[8] = system: Spodoptera littoralis (Egyptian Cotton Leaf Worm); assay: Example B9: Activity against Spodoptera littoralis (Egyptian cotton leaf worm), sprayed cotton leaf discs; settings: foliar, 72 h, application rate of 200 ppm, L1 larvae on cotton leaf discs, 3 days after infestation
Experimental: Example B9: Activity Against Spodoptera littoralis (Egyptian Cotton Leaf Worm)
Cotton leaf discs were placed onto agar in 24-well microtiter plates and sprayed with aqueous test solutions prepared from 10′000 ppm DMSO stock solutions. After drying the leaf discs were infested with five L1 larvae. The samples were assessed for mortality, anti-feeding effect, and growth inhibition in comparison to untreated samples 3 days after infestation. Control of Spodoptera littoralis by a test sample is given when at least one of the categories mortality, anti-feedant effect, and growth inhibition is higher than the untreated sample.

[9] = system: Carpocapsa (Cydia) pomonella (Codling Moth); assay: Example B15: Activity against Carpocapsa (Cydia) pomonella (codling moth), larvicide, feeding/contact; settings: 336 h, application rate of 12.5 ppm, L1 larvae on sprayed diet cubes, 14 days after infestation, read-out: effect in at least one of the two categories (mortality or growth inhibition)
Experimental: Example B15: Activity Against Carpocapsa (Cydia) pomonella (Codling Moth), Larvicide, Feeding/Contact
Diet cubes coated with paraffin were sprayed with diluted test solutions in an application chamber. After drying off the treated cubes (10 replicates) were infested with 1 L1 larvae. Samples were incubated at 26-27° C. and checked 14 days after infestation for mortality and growth inhibition.

[10] = system: Tetranychus urticae (Two-Spotted Spider Mite); assay: Example B10: Activity against Tetranychus urticae (two-spotted spider mite), sprayed bean leaf discs; settings: foliar, 192 h, application rate of 200 ppm, mixed population (mobile stages) on bean leaf discs, 8 days after infestation
Experimental: Example B10: Activity Against Tetranychus urticae (Two-Spotted Spider Mite)
Bean leaf discs on agar in 24-well microtiter plates were sprayed with aqueous test solutions prepared from 10′000 ppm DMSO stock solutions. After drying the leaf discs were infested with a mite population of mixed ages. The samples were assessed for mortality on mixed population (mobile stages) 8 days after infestation.

[11] = system: Euschistus heros (Neotropical Brown Stink Bug); assay: Example B3: Activity against Euschistus heros (neotropical brown stink bug), sprayed soybean leaf; settings: 120 h, application rate of 200 ppm, N-2 nymphs on soybean leaf, 5 days after infestation, read-out: effect in at least one of the two categories (mortality or growth inhibition)
Experimental: Example B3: Activity Against Euschistus heros (Neotropical Brown Stink Bug)
Soybean leaf on agar in 24-well microtiter plates were sprayed with aqueous test solutions prepared from 10′000 ppm DMSO stock solutions. After drying the leaf were infested with N-2 nymphs. The samples were assessed for mortality and growth inhibition in comparison to untreated samples 5 days after infestation.

[12] = system: Plutella xylostella (Diamond Back Moth); assay: Example B5: Activity against Plutella xylostella (diamond back moth), eggs, artificial diet; settings: 192 h, application rate of 200 ppm, 8 days after infestation, read-out: effect in at least one of the two categories (mortality or growth inhibition)
Experimental: Example B5: Activity Against Plutella xylostella (Diamond Back Moth)
as §2, with “drying, Plutella eggs were pipetted through a plastic stencil onto a gel blotting paper and” for “drying,”, “plate was closed” for “plates were infested”, “it.” for “L2 larvae (10 to 15 per well).”, “8” for “5”

[13] = system: Myzus persicae (Green Peach Aphid); assay: Example B7: Activity against Myzus persicae (green peach aphid), roots of pea seedlings in test solution; settings: 144 h, test rate of 24 ppm, roots of infested pea seedlings in test solution, 6 days
Experimental: Example B7: Activity Against Myzus persicae (Green Peach Aphid)
Roots of pea seedlings infested with an aphid population of mixed ages were placed directly in the aqueous test solutions prepared from 10′000 DMSO stock solutions. The samples were assessed for mortality 6 days after placing seedlings in test solutions.

CCS(=O)(=O)c1cc(OC(C)(C)C#N)cnc1-c1cn2ncc(C(F)(F)F)cc2n1 [Compound P9, 2-[[5-ethylsulfonyl-6-[7-(trifluoromethyl)imidazo[1,2-b]pyridazin-2-yl]-3-pyridyl]oxy]-2-methyl-propanenitrile]
≥ 80%: percent effect (mortality or growth inhibition) at 200 ppm [1] | mortality at 50 ppm [2] | mortality at 200 ppm [3] | mortality at 200 ppm [4] | percent effect (mortality or growth inhibition) at 200 ppm [5] | mortality at 200 ppm [6] | mortality at 12.5 ppm [7] | percent control (mortality, anti-feedant effect or growth inhibition) at 200 ppm [8]

CCS(=O)(=O)c1cc(OC(C)(C)C#N)c(C)nc1-c1nc2cc(C(F)(F)F)cnc2n1C [Compound P4, 2-[[5-ethylsulfonyl-2-methyl-6-[3-methyl-6-(trifluoromethyl)imidazo[4,5-b]pyridin-2-yl]-3-pyridyl]oxy]-2-methyl-propanenitrile]
≥ 80%: percent effect (mortality or growth inhibition) at 200 ppm [1] | percent effect (mortality or growth inhibition) at 12.5 ppm [9] | mortality at 200 ppm [3] | mortality at 200 ppm [4] | percent effect (mortality or growth inhibition) at 200 ppm [5] | mortality at 200 ppm [10] | percent effect (mortality or growth inhibition) at 200 ppm [11] | mortality at 12.5 ppm [7] | percent control (mortality, anti-feedant effect or growth inhibition) at 200 ppm [8]

Cn1c(-c2ncc(OC(C)(C)C#N)cc2S(=O)(=O)CC2CC2)nc2cc(C(F)(F)F)nnc21 [Compound P1, 2-[[5-(cyclopropylmethylsulfonyl)-6-[7-methyl-3-(trifluoromethyl)imidazo[4,5-c]pyridazin-6-yl]-3-pyridyl]oxy]-2-methyl-propanenitrile]
≥ 80%: percent effect (mortality or growth inhibition) at 200 ppm [1] | mortality at 50 ppm [2] | mortality at 200 ppm [3] | mortality at 200 ppm [4] | percent effect (mortality or growth inhibition) at 200 ppm [12] | mortality at 200 ppm [10] | percent effect (mortality or growth inhibition) at 200 ppm [11] | mortality at 12.5 ppm [7] | percent control (mortality, anti-feedant effect or growth inhibition) at 200 ppm [8]

CCS(=O)(=O)c1cc(OC(C)(C)C#N)cnc1-c1nc2cc3c(cc2n1C)OC(F)(F)O3 [Compound P15, 2-[[6-(2,2-difluoro-7-methyl-[1,3]dioxolo[4,5-f]benzimidazol-6-yl)-5-ethylsulfonyl-3-pyridyl]oxy]-2-methyl-propanenitrile]
≥ 80%: percent effect (mortality or growth inhibition) at 200 ppm [1] | percent effect (mortality or growth inhibition) at 12.5 ppm [9] | mortality at 200 ppm [3] | mortality at 200 ppm [4] | percent effect (mortality or growth inhibition) at 200 ppm [12] | percent effect (mortality or growth inhibition) at 200 ppm [11] | percent control (mortality, anti-feedant effect or growth inhibition) at 200 ppm [8]

CCS(=O)(=O)c1cc(OC(C)(C)C#N)cnc1-c1nc2cc(C(F)(F)F)nnc2n1C [Compound P2, 2-[[5-ethylsulfonyl-6-[7-methyl-3-(trifluoromethyl)imidazo[4,5-c]pyridazin-6-yl]-3-pyridyl]oxy]-2-methyl-propanenitrile]
≥ 80%: percent effect (mortality or growth inhibition) at 200 ppm [1] | mortality at 50 ppm [2] | mortality at 200 ppm [3] | mortality at 200 ppm [4] | percent effect (mortality or growth inhibition) at 200 ppm [5] | percent effect (mortality or growth inhibition) at 200 ppm [11] | mortality at 12.5 ppm [7] | mortality at 24 ppm [13] | percent control (mortality, anti-feedant effect or growth inhibition) at 200 ppm [8]

CCS(=O)(=O)c1cc(OC(C)(C)C#N)cnc1-c1nc2cc3c(cc2o1)OC(F)(F)O3 [Compound P16, 2-[[6-(2,2-difluoro-[1,3]dioxolo[4,5-f][1,3]benzoxazol-6-yl)-5-ethylsulfonyl-3-pyridyl]oxy]-2-methyl-propanenitrile]
≥ 80%: percent effect (mortality or growth inhibition) at 200 ppm [1] | percent effect (mortality or growth inhibition) at 12.5 ppm [9] | mortality at 200 ppm [4] | percent effect (mortality or growth inhibition) at 200 ppm [12] | percent effect (mortality or growth inhibition) at 200 ppm [11] | percent control (mortality, anti-feedant effect or growth inhibition) at 200 ppm [8]

CCS(=O)(=O)c1cc(OC(C)(C)C#N)ccc1-n1cc2cnc(C(F)(F)F)cc2n1 [Compound P10, 2-[3-ethylsulfonyl-4-[6-(trifluoromethyl)pyrazolo[4,3-c]pyridin-2-yl]phenoxy]-2-methyl-propanenitrile]
≥ 80%: percent effect (mortality or growth inhibition) at 200 ppm [1] | mortality at 50 ppm [2] | mortality at 200 ppm [3] | mortality at 200 ppm [4] | percent effect (mortality or growth inhibition) at 200 ppm [5] | mortality at 200 ppm [10] | mortality at 200 ppm [6] | percent effect (mortality or growth inhibition) at 200 ppm [11] | mortality at 12.5 ppm [7] | percent control (mortality, anti-feedant effect or growth inhibition) at 200 ppm [8]

CCS(=O)(=O)c1cc(OC(C)(C)C#N)cnc1-c1cn2ccc(C(F)(F)F)cc2n1 [Compound P8, 2-[[5-ethylsulfonyl-6-[7-(trifluoromethyl)imidazo[1,2-a]pyridin-2-yl]-3-pyridyl]oxy]-2-methyl-propanenitrile]
≥ 80%: percent effect (mortality or growth inhibition) at 200 ppm [1] | mortality at 200 ppm [4] | percent effect (mortality or growth inhibition) at 200 ppm [5] | mortality at 200 ppm [10] | mortality at 200 ppm [6] | percent effect (mortality or growth inhibition) at 200 ppm [11] | percent control (mortality, anti-feedant effect or growth inhibition) at 200 ppm [8]
